Results on 1 substance are retold here after patent US20080214680A1, “Application of arsenic as a cancer prevention agent” (priority 2003, published 2008).

In experiment [1] the test system is acute prontyelocytic leukemia cells. Description: Chen et al.: acute treatment of leukemia cells with arsenic trioxide. Particulars: equivalent of 0.1 μmoles per liter. It counts as cell-based. The procedure: Bae cites a paper by Chen et at. (May 1, 1997) in his references, published more than a year before his patent filing, which recites the use of arsenic trioxide (As2O3) as an acute treatment on acute prontyelocytic leukemia cells. The treatment is effective over an exposure range of 0.5-2.0 μmoles per liter, but ineffective at 0.1 μmoles per liter. These values are equivalent to […] and 0.02 μg/ml, respectively. Chen requires just 9-36 percent of Bae's arsenic hexoxide dose to produce an acute effect on cells with arsenic trioxide. (Two percent of Bae's dose [0.1 μmoles per liter] is an […] cellular dose for arsenic trioxide.) For treating humans, Bae's prolonged daily exposure to arsenic hexoxide is 1818-times greater than […] effective cellular dose and 40,000-times greater than 50 ppb. Chen reports no human exposure data, but if he treated cancers in humans with an 1818-times greater daily dose of arsenic trioxide, that exposure would be 3600-14,400-times greater than this invention's 50 ppb or μg/L. Chen's ineffective dose would be 720-times greater than 50 μg/L.

Experiment [2] has the same test system. Conditions: acute treatment of cells; cited from earlier work.

On to arsenic trioxide, for which the “ineffective exposure, mass equivalent” value in experiment [1] came to 0.02 µg/mL. In addition, in experiment [2], the effective exposure range is 0.5-2.0 μmoles per liter and the ineffective exposure is on record as 0.1 μmoles per liter.
